Read-outs that look alike come from different tables or passages of the source.
How the values were obtained:
[1] = molecular target: T1, FXR (Homo sapiens, UniProt Q96RI1); assay: FXR agonistic activity by reporter gene (pGAL4-FXR-LBD / pG5-Luc, Dual-Glo luciferase) in HEK293T cells; assay type: cell-based
T1 construct: expressed in transfected cells; host or cells: HEK293T
T1 sequence (Q96RI1 212-476 isoform Q96RI1-1): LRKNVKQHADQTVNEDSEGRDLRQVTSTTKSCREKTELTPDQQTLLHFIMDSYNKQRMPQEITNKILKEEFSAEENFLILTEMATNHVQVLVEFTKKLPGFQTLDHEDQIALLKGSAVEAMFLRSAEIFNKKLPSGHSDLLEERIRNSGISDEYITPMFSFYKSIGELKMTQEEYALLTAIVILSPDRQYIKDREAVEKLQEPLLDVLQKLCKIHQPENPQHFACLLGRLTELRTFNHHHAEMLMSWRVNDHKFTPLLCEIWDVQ
Description: 1.2 Plasmid Co-transfection of HEK293T Cells and Compound Treatment HEK293T cells were seeded in 96-well plates at a density of 1×10^4/well one day before plasmid transfection. […] 2 duplicate wells were set up in total. […] The dose-response curves were fitted with four parameters using GraphPad Prism 6.0 software, and EC50 values were calculated.

[2] = in vivo; details: mouse, po, 3 mg/kg
Description: (§1) In each group of embodiment, 6 male ICR mice with a similar body weight were selected, of which 3 mice were dosed orally in a single dose of 3 mg/kg, and 3 mice were dosed intravenously in a single dose of 1 mg/kg. Blood samples were collected at time points of 15 min, 30 min, 1 h, 2 h, 4 h and 7 h after administration. The concentrations of plasma samples were analyzed by LC-MS/MS.
(§2) 12 healthy male ICR mice, commercially available from Charles River with an animal production license NO.: 2021123 1Abzz0619000376, were divided into 4 groups, 3 in each group.
(§3) Formulation preparation: a certain amount of compounds were weighed and added into a 2% DMSO+15% Solutol+83% saline, to prepare a clear solution.
(§4) Dosage: ICR mice were fasted overnight and given each compound at an oral dose of 3 mg/kg or an intravenous dose of 1 mg/kg. The administrated volume for oral and intravenous administration are 10 mL/kg and 5 mL/kg, respectively.
(§5) Sample collection: About 30 µL of blood was collected via great saphenous vein at 15 min, 30 min, 1 h, 2 h, 4 h and 7 h after dosage. The blood was placed into a commercial tube containing K2-EDTA. Plasma samples were then obtained by centrifuging the blood samples at approximately 4°C, 4600 rpm for 5 minutes. All plasma samples were then quickly frozen on dry ice and kept at -70°C until LC-MS/MS analysis.
(§6) Sample preparation: 10 µL of plasma samples were precipitated by methanol containing 50 nmol/L of α-naphthoflavone as internal standard. The mixture was votex-mixed well and centrifuged at 14000 rpm for 5 min at 4°C. 75 µL of the supernatant was taken and mixed with 75 µL of methanol, and introduced for LC-MS/MS analysis.

[3] = mouse, in vivo, iv, 1 mg/kg
Description: as §1, §2, §3, §4, §5, §6

[4] = Cellular Level Activity EC50(nM) of FXR, HEK293T cells co-transfected with pGAL4-FXR-LBD, pG5-Luc, phRL-TK, 24 h treatment
[5] = HEK293T cells co-transfected with pGAL4-FXR-LBD, pG5-Luc, phRL-TK, 24 h treatment, read-out: Cellular Level Activity EC50(nM) of FXR
[6] = HEK293T reporter gene assay, read-out: EC50 values (FXR agonistic activity)
[7] = EC50 values (FXR agonistic activity), HEK293T reporter gene assay

**Q.** With `O=c1[nH]c(-c2ccc(N3[C@@H]4CC[C@H]3C[C@@H](OCc3c(-c5c(Cl)cccc5Cl)noc3C3CC3)C4)cc2F)no1` [Control 1, reference compound] as the molecule, how does the EC50 [1, 4] read?
**A.** 5 to 10 nM

**Q.** Which AUC(0-t) at 7 h [2] does the source give for `O=c1[nH]c(-c2ccc(N3C4CCC3CC(OCc3c(-c5ccccc5C(F)(F)F)noc3C3CC3)C4)cc2F)no1` (stereo not shown) [Embodime nt 1] here?
**A.** 318 ± 172 ng·h/mL

**Q.** And the Cmax [2]?
**A.** 312 ± 140 ng/mL

**Q.** And the bioavailability [2]?
**A.** 12.6%

**Q.** What about the “CL_obs” value [3] of the same molecule?
**A.** 20.5 ± 4.6 mL/min/kg

**Q.** What about the “Vss_obs” value [3] of the same molecule?
**A.** 0.418 ± 0.076 L/kg

**Q.** What does the source list for `[2H]C([2H])(O[C@H]1C[C@H]2CC[C@@H](C1)N2c1ccc(-c2noc(=O)[nH]2)c(F)c1)c1c(-c2ccccc2C(F)(F)F)noc1C1CC1` [Embodime nt 2]?
**A.** AUC(0-t) at 7 h [2]: 587 ± 54 ng·h/mL; Cmax [2]: 555 ± 25 ng/mL; bioavailability [2]: 25.2%; CL_obs [3]: 21.6 ± 2.4 mL/min/kg; Vss_obs [3]: 0.704 ± 0.033 L/kg

**Q.** For `[2H]C([2H])(OC1CC2CCC(C1)N2c1ccc(-c2noc(=O)[nH]2)cc1)c1c(-c2c(Cl)cccc2Cl)noc1C1CC1` (stereo not shown) [Example 1], which EC50 [1, 5] is on record?
**A.** < 5 nM

**Q.** And the EC50 [1, 6]?
**A.** < 5 nM

**Q.** With `[2H]C([2H])(OC1CC2CCC(C1)N2c1ccc(-c2noc(=O)[nH]2)nc1)c1c(-c2c(Cl)cccc2Cl)noc1C1CC1` (stereo not shown) [Example 2] as the molecule, how does the EC50 [1, 5] read?
**A.** < 5 nM

**Q.** And the EC50 [1, 6]?
**A.** < 5 nM

**Q.** Which EC50 [1, 4] does the source give for `[2H]C([2H])(OC1CC2CCC(C1)N2c1ccc(-c2noc(=O)[nH]2)c(F)c1)c1c(-c2c(Cl)cccc2Cl)noc1C1CC1` (stereo not shown) [Example 3] here?
**A.** < 5 nM

**Q.** And the EC50 [1, 7]?
**A.** < 5 nM

**Q.** What about the “FXR agonistic activity / cellular level activity (in words)” value ([1]; HEK293T reporter gene assay, comparison with LJN452 and Control 1) of the same molecule?
**A.** significantly improved activity

**Q.** With `[2H]C(OC1CC2CCC(C1)N2c1ccc(-c2noc(=O)[nH]2)c(F)c1)c1c(-c2c(Cl)cccc2Cl)noc1C1CC1` (stereo not shown) [Example 4] as the molecule, how does the EC50 [1, 4] read?
**A.** < 5 nM

**Q.** What about the EC50 [1, 7] of the same molecule?
**A.** < 5 nM

**Q.** Which EC50 [1, 5] does the source give for `[2H]C([2H])(OC1CC2CCC(C1)N2c1ccc(-c2noc(=O)[nH]2)c(C)c1)c1c(-c2c(Cl)cccc2Cl)noc1C1CC1` (stereo not shown) [Example 5] here?
**A.** 5 to 10 nM

**Q.** Which EC50 [1, 5] does the source give for `[2H]C([2H])(OC1CC2CCC(C1)N2c1ccc(-c2noc(=O)[nH]2)c(OC)c1)c1c(-c2c(Cl)cccc2Cl)noc1C1CC1` (stereo not shown) [Example 6] here?
**A.** 5 to 10 nM

**Q.** Which EC50 [1, 5] does the source give for `[2H]C([2H])(OC1CC2CCC(C1)N2c1ccc(-c2noc(=O)[nH]2)c(C(F)(F)F)c1)c1c(-c2c(Cl)cccc2Cl)noc1C1CC1` (stereo not shown) [Example 7] here?
**A.** 5 to 10 nM

**Q.** For `[2H]C([2H])(OC1CC2CCC(C1)N2c1ccc(-c2noc(=O)[nH]2)c(F)c1)c1c(-c2ccccc2C(F)(F)F)noc1C1CC1` (stereo not shown) [Example 8], which EC50 [1, 5] is on record?
**A.** 5 to 10 nM

**Q.** Which EC50 [1, 5] does the source give for `[2H]C([2H])(OC1CC2CCC(C1)N2c1ccc(-c2noc(=O)[nH]2)c(F)c1)c1c(-c2ccccc2OC(F)(F)F)noc1C1CC1` (stereo not shown) [Example 9] here?
**A.** 5 to 10 nM

— EP4245365B1, “A FXR SMALL MOLECULE AGONIST, THE PREPARATION AND USE THEREOF” (Cascade Pharmaceuticals, Inc., priority 2022, dated 2023)
